# Where “and” joins values, the source holds several entries; their conditions need not be identical. Equal entries are not always repeated.
# Columns and labels:
# male mouse = test: Expectorant activity, phenol red secretion method in mouse; assay type: in vivo
# Experimental: In order to measure expectorant activities of Coptidis Rhizoma extracts of the Examples 1-1 to 1-3, experiment was conducted using Engler et al. method ([…]. Pharmacol. Moth. 11, 151 157, 1984, Bao-quin Lin et., Pulmonary Pharmacology & Therapeutics 21, 259 263, 2008.) in the following procedure. A positive control drug (ambroxol, Sigma) and test drugs (Coptidis Rhizoma extract of Examples 1-1 to 1-3) were orally administered to a male mouse (8-weeks age, Sam tako BioKorea), and after 30 minutes, 500 mg/kg of phenol red was intraperitoneally injected (phenol red was dissolved in saline). After 30 minutes, the mouse was anesthetized with diethyl ether, exsanguinated by cutting the abdominal aorta, and then the whole trachea was resected. […] In order to evaluate expectorant activities of the combined extract and single extract prepared in the Example 2 (2-1 to 2-11), experiment was conducted by the same method as described in [Experiment method] of Experiment 3-1, using Engler, et al. method ([…]. Pharmacol. Moth. 11, 151 157, 1984., Bao-quin Lin et., Pulmonary Pharmacology & Therapeutics 21, 259 263, 2008.), of which results are shown in FIG. 2.
# male guinea pig = test: Antitussive activity, citric acid-induced cough in guinea pig; assay type: in vivo; settings: oral 50 mg/kg, 0.2M citric acid
# Experimental: In order to measure antitussive activity of Coptidis Rhizoma extracts of Examples 1-1 to 1-3, experiment was conducted using Tanaka et al. method (Motomu Tanaka and Kei Maruyama., J. Pharmacol. Sci. 93, 465˜470, 2003., Daoui, Cognon, Naline et., Am. J. Respir. Crit. Care. Med. 158, 42˜48, 1998) in the following procedure.
# A test drug was orally administered to a male guinea pig (6-weeks age, Sam tako BioKorea), and after 1 hour, the guinea pig was put in a plethysmograph chamber (Buxco, U.S.A.), and then, a cough inducer, citric acid (Sigma) was nebulized to induce cough. As positive control, theobromine (Sigma) which is used as an antitussive was used. And, the guinea pig was exposed to 0.2M citric acid for 10 minutes, and the number of coughs occurred was measured for 15 minutes.
# In order to measure antitussive activities of 5 sub-fractions prepared in the above Example 1-4, experiment for antitussive activity was conducted by the same method as Experiment 3-2, of which results are presented in the following Table 7. […]
# peritoneal mast cell = test: Antihistamine activity, compound 48/80-induced histamine release from peritoneal mast cells of ovalbumin-sensitized rat; assay type: cell-based; settings: oral dosage 5 mg/kg
# Experimental: In order to measure antihistamine activity of Coptidis Rhizoma extract of Examples 1-1 to 1-3, experiment was conducted using Honuchi et al. method (Masako Honuchi and Yoshiyuki Seyama, J. Health Sci., 52(6), 711˜717, 2006., Naoki Inagaki et al. Biol. Pharm. Bull. 24(7), 829˜834, 2001.) in the following procedure.
# Antihistamine effect was measured using peritoneal mast cell of a male rat (7-weeks age, Sam tako BioKorea) sensitized with ovalbumin As positive control, Ketotifen (Sigma) was used. To a rat sensitized with ovalbumin, Ketotifen was orally administered at a concentration of 5 mg/kg, and test drugs were orally administered respectively at a concentration of 200 mg/kg for 4 days, and then, peritoneal mast cells were separated. The separated peritoneal mast cells (2×10^5 cells/ml) were treated with Ketotifen at concentrations of 0.01 mg/ml, 0.1 mg/ml, and 1.0 mg/ml, and test drugs at concentrations of 0.1 mg/ml, 1.0 mg/ml, and 10 mg/ml. Finally, the mast cells were treated with compound 48/80 (Sigma) which activates non-immunological histamine release at a concentration of 10 μg/ml. At this time, the amount of histamine released from mast cells was quantified to examine whether the test materials suppress release of histamine from the mast cells. The relative amount of histamine released from mast cell in a rat to which no drug was administered was measured, of which results are presented in the following Table 5.
# In order to measure antihistamine activities of 5 sub-fractions prepared in the above Example 1-4, the same experiment was conducted as the above Experiment 3-3, of which results are presented in the following Table 8.
# In order to measure antihistamine effect of ivy leaf extract, and combined extract of Coptidis Rhizoma with ivy leaf (Examples 2-1 to 2-11) prepared in Example 2 in mast cell, experiment was conducted by the same method as described in [Experiment method] in Experiment 3-3 using Honuchi et al. method (Masako Honuchi and Yoshiyuki Seyama, J. Health Sci., 52(6), 711˜717, 2006., Naoki Inagaki et. Biol. Pharm. Bull. 24(7), 829˜834, 2001.), of which results are presented in the following Table 13.
# immunoglobulin E (IgE) = test: Murine asthma model: IgE value in blood plasma (ELISA); assay type: in vivo, mouse; settings: Day 21, 30 mg/kg oral
# Experimental: (§1) And, for evaluation, examination of airway hyper-responsiveness (AHR) for methacholine, examination of IgE value in blood plasma, examination of the number of cells and the distribution of white blood cells in bronchoalveolar lavage fluid (BALF), observation of pulmonary tissue, and RT-PCR (IL-1β, IL-4, IL-13r2a) were conducted.
# (§2) To a Balb/c mouse (18˜21 g, Orientbio Inc.), an ovalbumin (OVA, Sigma) solution prepared for intraperitoneal injection was intraperitoneally administered in an amount of 500 ul (20 ug as OVA) per one mouse at Day 0 and Day 7, and it was sensitized with a solution prepared for OVA inhalation using a nebulizer (NE-U17, OMRON Co. Ltd, Japan) and then, the prepared 5% OVA solution was inhaled everyday for 30 minutes from Day 14 to Day 20. As positive control drug, 30 mg/kg of montelukast sodium was used, and all the experiment materials were used in an amount of 200 mg/kg. […]
# For the animal measured according to 1), about 0.05 ml of blood was collected by orbital blood sampling and centrifuged, and the obtained plasma was divided into two parts and diluted to 1:10 to examine immunoglobulin E (IgE) value in plasma through IgE enzyme linked immunosorbent assay (ELISA; IgE ELISA kit for mouse, ME-151, SHIBAYAGI Co., Ltd., JAPAN).
# [1] = system: OVA-sensitized Balb/c mouse; test: Murine asthma model: airway hyper-responsiveness (AHR) to methacholine; assay type: in vivo; settings: 30 mg/kg oral, Day 14-20
# Experimental: as §1
# (§3) To a Balb/c mouse (18˜21 g, Orientbio Inc.), an ovalbumin (OVA, Sigma) solution prepared for intraperitoneal injection was intraperitoneally administered in an amount of 500 ul (20 ug as OVA) per one mouse at Day 0 and Day 7, and it was sensitized with a solution prepared for OVA inhalation using a nebulizer (NE-U17, OMRON Co. Ltd, Japan) and then, the prepared 5% OVA solution was inhaled everyday for 30 minutes from Day 14 to Day 20. As positive control drug, 30 mg/kg of montelukast sodium was used, and all the experiment materials were used in an amount of 200 mg/kg. And, positive control drug and the experiment materials were orally administered everyday one hour before OVA inhalation for 7 days of from Day 14 to Day 20 after sensitization, and then, experiments were conducted by the following evaluation items.
# 24 hours after final inhalation of OVA (at Day 21), the mouse was put in a whole body plethysmograph (BUXCO, USA), each 0.4 ml of methacholine solutions of concentrations of 0, 10 and 20 mg/ml were taken to introduce in an aerosol, and inhaled to the mouse respectively for 3 minutes. And, Penh were measured for 4 minutes from the inhalation time, and the average value was set as Penh (enhanced pause) at corresponding dosage of methacholine.
# IL-4 = test: Murine asthma model: RT-PCR of lung tissue, IL-4; assay type: in vivo, mouse; settings: band density divided by actin density, 30 mg/kg oral
# Experimental: as §1, §2
# (§4) Right pulmonary tissue was rapidly taken off and stored at −80° C. before experiment. RNA was separated from the tissue using RNA-Bee (Tel-Test Inc. USA), and the separated RNA was quantified at 260 nm using a spectrometer, and then, 4 ug of RNA and Oligo dT 2 ul (Promega), DEPC water were added to make 10 ul and the mixture was reacted at 65 r for 5 minutes. […]
# IL-1β = test: Murine asthma model: RT-PCR of lung tissue, IL-1β; assay type: in vivo, mouse; settings: band density divided by actin density, 30 mg/kg oral
# Experimental: as §1, §2, §4
# IL-13r2a = test: Murine asthma model: RT-PCR of lung tissue, IL-13r2a; assay type: in vivo, mouse; settings: band density divided by actin density, 30 mg/kg oral
# Experimental: as §1, §2, §4
# [2] = system: neutrophils and eosinophils in BALF; test: Murine asthma model: number of cells in bronchoalveolar lavage fluid (BALF); assay type: in vivo, mouse; settings: Day 22, 30 mg/kg oral
# Experimental: as §1, §2
# To the animals whose blood was sampled according to 2), sodium pentothal (50 mg/kg) was injected intraperitoneally to anesthetize it. […] For the suspension, the numbers of total leucocytes, neutrophils, eosinophils and lymphocytes were measured using automated hematology analyzers (Advia 120 coulter counter, BAYER, Germany).
# pulmonary tissue = test: Murine asthma model: observation of pulmonary tissue; assay type: in vivo, mouse; settings: score 1=No, 2=slight, 3=thin, 4=moderate, 5=thick; 30 mg/kg oral
# Experimental: as §1, §3
# The left lung fixed with a nipper was taken off and fixed with a 10% formalin solution for one day, and then, paraffin-penetrated tissue using a tissue processor was cut to a thickness of 3-4 um using a microtome to make tissue fragments. […]
compound,measurement,setting,value
"Nc1c(Br)cc(Br)cc1CN[C@H]1CC[C@H](O)CC1 [Ambroxol, ambroxol]",Capacity to discharge sputum (%),male mouse; oral 250 mg/kg,34%
same,Capacity to secrete sputum (%),"male mouse; oral 250 mg/kg, 250 mg/kg",32% and 30%
"Cn1cnc2c1c(=O)[nH]c(=O)n2C [Theobromine, theobromine]",Capacity to suppress cough (%),male guinea pig,57% and 56%
CN1CCC(=C2c3ccccc3CC(=O)c3sccc32)CC1 [Ketotifen],Histamine release amount (%),peritoneal mast cell; mast cell treatment 0 mg/ml,43% and 44%
same,Histamine release amount (%),peritoneal mast cell; mast cell treatment 0.01 mg/ml,41%
same,Histamine release amount (%),peritoneal mast cell; mast cell treatment 0.1 mg/ml,32%
same,Histamine release amount (%),peritoneal mast cell; mast cell treatment 1.0 mg/ml,18% and 19%
"CC(C)(O)c1ccccc1CC[C@@H](SCC1(CC(=O)O)CC1)c1cccc(/C=C/c2ccc3ccc(Cl)cc3n2)c1 [montelukast, montelukast sodium]",IgE level,immunoglobulin E (IgE),13.7 ± 5.7 ng/mL
same,Penh value according to methacholine dosage,[1]; methacholine 0 mg/ml,1.5 ± 0.2
same,Penh value according to methacholine dosage,[1]; methacholine 10 mg/ml,8.4 ± 2.4
same,Penh value according to methacholine dosage,[1]; methacholine 20 mg/ml,19.8 ± 5.4
same,Degree of cytokine expression IL-4,IL-4,1.47 ± 0.48
same,Degree of cytokine expression IL-1β,IL-1β,0.51 ± 0.26
same,Degree of cytokine expression IL-13r2a,IL-13r2a,0.37 ± 0.31
same,WBC EOS (eosinophil),[2],466.0 ± 207.0 ×10^3 cells
same,WBC NEU (neutrophil),[2],22.3 ± 7.2 ×10^3 cells
same,Microscope observation: Degree of infiltration of inflammatory cells,pulmonary tissue,3.7 ± 0.5
same,Microscope observation: Degree of occlusion of bronchus,pulmonary tissue,3.5 ± 0.5
"COc1ccc2cc3[n+](cc2c1OC)CCc1cc2c(cc1-3)OCO2 [Berberine, berberine]",Capacity to discharge sputum (%),male mouse; oral 125 mg/kg,39%

# Source: patent publication US20130122127A1, “Extract of Coptidis Rhizoma and novel use thereof in treating respiratory disease” (AHN-GOOK PHARMACEUTICAL CO., LTD., priority 2008, published 2013)
